Assay results taken from ChEMBL document CHEMBL5385914 (J Med Chem, 2024).
The source made the active and inactive calls. The calls are words filed in the database; no cut-off is given here.

Columns and labels:
[1] = Antiproliferative activity against human A2780AD cells overexpressing P-gp assessed as inhibition of cell growth; assay type: functional, cell-based
Tubulin [2] = assay: Displacement of fluorescent probe (R)-(+)-ethyl 5-amino2-methyl-1,2-dihydro-3-phenylpyrido[3,4-b]pyrazin-7-ylcarbamate from tubulin colchicine binding site (unknown origin) assessed as dissociation constant; assay type: protein-complex assay, Homo sapiens
A2780 [3] = assay: Antiproliferative activity against human A2780 cells assessed as inhibition of cell growth; assay type: functional, cell-based
A549 [4] = assay: cells; conditions: Homo sapiens, A549, 48 h
cells = conditions: Homo sapiens, A2780AD, 48 h
HeLa [5] = assay: cells; conditions: Homo sapiens, 48 h
HeLa [6] = assay: cells; conditions: Homo sapiens, 48 h; remark: listed apart in the source
A549 [7] = assay: cells; conditions: Homo sapiens
Description: Antiproliferative activity against human A549 cells assessed as inhibition of cell growth

HeLa [8] = assay: cells; conditions: Homo sapiens
Description: Antiproliferative activity against human HeLa cells assessed as inhibition of cell growth

HeLa [9] = assay: cells; conditions: Homo sapiens; remark: listed apart in the source
Description: Antiproliferative activity against human HeLa cells expressing tubulin betaIII assessed as inhibition of cell growth

Tubulin [10] = target: Tubulin (Bos taurus, UniProt Q6B856+Q862L2+Q862F3); assay: Displacement of fluorescent probe (R)-(+)-ethyl 5-amino2-methyl-1,2-dihydro-3-phenylpyrido[3,4-b]pyrazin-7-ylcarbamate from calf brain tubulin colchicine binding site assessed as dissociation constant at 0.05 to 70 uM incubated for 30 mins by fluorescence based assay
A2780 [11] = assay: cells; conditions: Homo sapiens, A2780, 48 h
Tubulin (Homo sapiens) [12] = target: T1, Tubulin (Homo sapiens) (UniProt P68371+Q9H4B7+P0DPH7+P68366+Q13509+Q71U36+P04350+Q3ZCM7+P07437+P68363+Q9BQE3+Q6PEY2+Q13885+Q9BVA1+Q9BUF5)
NCI-H460 [13] = assay: Antitumor activity against human NCI-H460 cells xenografted in athymic nu/nu mouse assessed as mean survival time at 2.5 mg/kg, iv administered once a week for 2 weeks; assay type: functional
Tubulin (Homo sapiens) [14] = target: T1, Tubulin (Homo sapiens); assay: Disruption of microtubule network in human A549 cells assessed as disorganization of tubulin cytoskeleton during interphase incubated for 24 hrs by immunofluorescence staining based epifluorescence microscopic analysis; assay type: cell-based
[15] = Inhibition of human recombinant alpha1beta3 tubulin expressed in Sf9 insect cells at 5 to 27.5 uM incubated for 70 mins by […]; conditions: dose 5-27.5 µM
Tubulin (Homo sapiens) [16] = target: T1, Tubulin (Homo sapiens); assay: Disruption of microtubule network in human A549 cells assessed as induction of cellular landscape at 1 nM incubated for 24 hrs by immunofluorescence staining based epifluorescence microscopic analysis; assay type: cell-based
Tubulin (Homo sapiens) [17] = target: T1, Tubulin (Homo sapiens); assay: Disruption of microtubule network in human A549 cells assessed as reduction in number and length of microtubules incubated for 24 hrs by immunofluorescence staining based epifluorescence microscopic analysis; assay type: cell-based
Tubulin (Homo sapiens) [18] = target: T1, Tubulin (Homo sapiens); assay: Disruption of microtubule network in human A549 cells assessed as appearance of cellular phenotype with hypercondensed chromatin incubated for 24 hrs by immunofluorescence staining based epifluorescence microscopic analysis; assay type: cell-based
NCI-H460 [19] = assay: Antitumor activity against human NCI-H460 cells xenografted in athymic nu/nu mouse assessed as increase in survival time at 0.75 mg/kg, iv administered once a week for 2 weeks; assay type: functional, organism-based
NCI-H460 [20] = assay: Antitumor activity against human NCI-H460 cells xenografted in athymic nu/nu mouse assessed as increase in survival time at 1.1 to 2.5 mg/kg, iv administered once a week for 2 weeks; assay type: functional, organism-based; conditions: dose 1.1-2.5 mg/kg
NCI-H460 [21] = assay: Antitumor activity against human NCI-H460 cells xenografted in athymic nu/nu mouse assessed as increase in apoptosis by measuring number of apoptotic nuclei in tumor at 2.5 mg/kg, iv administered once a week for 2 weeks and measured 24 hrs post last dose by Hoechst 33258 staining based fluorescence microscopic analysis (reference value: 1 +/- 0.1); assay type: functional; conditions: time 15 day
Tubulin (Homo sapiens) [22] = target: T1, Tubulin (Homo sapiens); assay: Disruption of microtubule network in human A549 cells assessed as appearance of aberrant chromosome distribution incubated for 24 hrs by immunofluorescence staining based epifluorescence microscopic analysis; assay type: cell-based
NCI-H460 [23] = assay: Antitumor activity against human NCI-H460 cells xenografted in athymic nu/nu mouse assessed as median tumor volume at 0.75 mg/kg, iv measured on day 7 by digital caliper based analysis; assay type: functional; conditions: time 7 day
NCI-H460 [24] = assay: Antitumor activity against human NCI-H460 cells xenografted in athymic nu/nu mouse assessed as reduction in tumor size at 0.75 mg/kg, iv administered once a week for 2 weeks by digital caliper based analysis; assay type: functional, organism-based
NCI-H460 [25] = assay: Antitumor activity against human NCI-H460 cells xenografted in athymic nu/nu mouse assessed as reduction in tumor size at 1.1 to 2.5 mg/kg, iv administered once a week for 2 weeks by digital caliper based analysis; assay type: functional, organism-based; conditions: dose 1.1-2.5 mg/kg
NCI-H460 [26] = assay: Antitumor activity against human NCI-H460 cells xenografted in athymic nu/nu mouse assessed as median tumor volume at 1.7 mg/kg, iv measured on day 7 by digital caliper based analysis; assay type: functional; conditions: time 7 day
NCI-H460 [27] = assay: Antitumor activity against human NCI-H460 cells xenografted in athymic nu/nu mouse assessed as mean survival time at 0.75 mg/kg, iv administered once a week for 2 weeks; assay type: functional
NCI-H460 [28] = assay: Antitumor activity against human NCI-H460 cells xenografted in athymic nu/nu mouse assessed as mean survival time at 1.7 mg/kg, iv administered once a week for 2 weeks; assay type: functional
NCI-H460 [29] = assay: Antitumor activity against human NCI-H460 cells xenografted in athymic nu/nu mouse assessed as mean survival time at 1.1 mg/kg, iv administered once a week for 2 weeks; assay type: functional
[30] = Toxicity in athymic nu/nu mouse xenografted with human NCI-H460 cells assessed as reduction in body weight at 2.5 mg/kg, iv measured on day 5; assay type: organism-based; design: scale not given: the % may be the effect or the level left; conditions: in vivo, 120 h, time 5 day
NCI-H460 [31] = assay: Antitumor activity against human NCI-H460 cells xenografted in athymic nu/nu mouse assessed as median tumor volume at 1.1 mg/kg, iv measured on day 7 by digital caliper based analysis; assay type: functional; conditions: time 7 day
NCI-H460 [32] = assay: Antitumor activity against human NCI-H460 cells xenografted in athymic nu/nu mouse assessed as median tumor volume at 2.5 mg/kg, iv measured on day 7 by digital caliper based analysis; assay type: functional; conditions: time 7 day
Tubulin (Bos taurus) [33] = target: T2, Tubulin (Bos taurus) (UniProt Q6B856+Q862L2+Q862F3); assay: Displacement of 2-methoxy-5-(2,3,4-trimethoxyphenyl)-2,4,6-cycloheptatriene-1-one from calf brain tubulin colchicine site
Tubulin (Bos taurus) [34] = target: T2, Tubulin (Bos taurus); assay: Inhibition of calf brain tubulin assembly measured upto 100 mins; conditions: dose 0.625-5 µM
Tubulin (Homo sapiens) [35] = target: T1, Tubulin (Homo sapiens); assay: Disruption of microtubule network in human A549 cells assessed as reduction in mitotic spindle formation incubated for 24 hrs by immunofluorescence staining based epifluorescence microscopic analysis; assay type: cell-based
[36] = Toxicity in athymic nu/nu mouse xenografted with human NCI-H460 cells assessed as clinical signs of systemic toxicity at 2.5 mg/kg, iv administered once a week for 2 weeks; assay type: organism-based; conditions: in vivo, 336 h
NCI-H460 [37] = assay: Antitumor activity against human NCI-H460 cells xenografted in iv dosed athymic nu/nu mouse assessed as reduction in tumor volume administered once a week for 2 weeks and measured 2 to 3 times per week by digital caliper based analysis; assay type: functional, organism-based; conditions: dose 0.25-2.5 mg/kg
[38] = Toxicity in athymic nu/nu mouse xenografted with human NCI-H460 cells assessed as reduction in body weight at 2.5 mg/kg, iv measured on day 2; assay type: organism-based; design: scale not given: the % may be the effect or the level left; conditions: in vivo, 48 h, time 2 day
[39] = Toxicity in athymic nu/nu mouse xenografted with human NCI-H460 cells assessed as reduction in body weight at 2.5 mg/kg, iv measured on day 7; assay type: organism-based; design: scale not given: the % may be the effect or the level left; conditions: in vivo, 168 h, time 7 day
Tubulin (Bos taurus) [40] = target: T2, Tubulin (Bos taurus); assay: Binding affinity to calf brain tubulin colchicine binding site assessed as Koff at 3 uM incubated for 30 mins by fluorescence based photon-counting instrument

COCc1cc2cccc(NC(C)=C3C(=O)CC(c4ccccc4)CC3=O)c2o1 (stereo not given)
IC50 [1]: 39 nM | Kd (Tubulin [2]): 3 nM | IC50 (A2780 [3]): 23 nM

COc1cc([C@@H]2c3cc4c(cc3[C@H](O)[C@H]3COC(=O)[C@H]23)OCO4)cc(OC)c1OC [PODOFILOX]
IC50 (A549 [4]): 16 nM | IC50 (cells): 20 nM | IC50 (HeLa [5]): 15.5 nM | IC50 (HeLa [6]): 18 nM

COc1cc2c(c(OC)c1OC)-c1ccc(OC)c(=O)cc1[C@@H](NC(C)=O)CC2 [COLCHICINE]
IC50 [1]: 537 nM | IC50 (A549 [7]): 49 nM | IC50 (HeLa [8]): 11 nM | IC50 (HeLa [9]): 19 nM

CCC[C@@H](NC(=O)[C@]1(C)CSC(/C(C)=N/O)=N1)c1cc(OC)cc(=O)o1
IC50 (A549 [4]): 23 nM | Kd (Tubulin [10]): 960 nM | IC50 (cells): 54 nM | IC50 (HeLa [5]): 19 nM | IC50 (A2780 [11]): 22 nM | IC50 (HeLa [6]): 28 nM

CC(=O)O[C@H]1C(=O)[C@@]2(C)[C@H]([C@H](OC(=O)c3ccccc3)[C@]3(O)C[C@H](OC(=O)[C@H](O)[C@@H](NC(=O)c4ccccc4)c4ccccc4)C(C)=C1C3(C)C)[C@]1(OC(C)=O)CO[C@@H]1C[C@@H]2O [PACLITAXEL]
IC50 (cells): 392 nM | IC50 (HeLa [5]): 1.1 nM | IC50 (HeLa [6]): 20 nM

COc1ccc(/C=C\c2cc(OC)c(OC)c(OC)c2)cc1O
Ka (Tubulin (Homo sapiens) [12]): 3 10^8/M

COc1cc2cc(c1Cl)N(C)C(=O)C[C@H](OC(=O)[C@H](C)N(C)C(C)=O)[C@]1(C)O[C@H]1[C@H](C)[C@@H]1C[C@@](O)(NC(=O)O1)[C@H](OC)/C=C/C=C(\C)C2 [MAYTANSINE]
IC50 (A549 [4]): 0.59 nM | IC50 (cells): 19 nM | IC50 (HeLa [5]): 0.33 nM | IC50 (A2780 [11]): 0.74 nM | IC50 (HeLa [6]): 1.1 nM

CCC[C@@H](NC(=O)[C@]1(C)CSC(/C(C)=N/O)=N1)c1cc(OCC2CC2)cc(=O)o1
MST (NCI-H460 [13]): 21 days | Activity (Tubulin (Homo sapiens) [14]): Active | inhibition [15]: Active | IC50 (A549 [4]): 1.5 nM | Kd (Tubulin [10]): 20 nM | Activity (Tubulin (Homo sapiens) [16]): Active | Activity (Tubulin (Homo sapiens) [17]): Active | Activity (Tubulin (Homo sapiens) [18]): Active | Activity (NCI-H460 [19]): inactive | IC50 (cells): 3.2 nM | Activity (NCI-H460 [20]): Active | Activity (NCI-H460 [21]): 10 | Activity (Tubulin (Homo sapiens) [22]): Active | Activity (NCI-H460 [23]): 1395 mm3 | Activity (NCI-H460 [24]): inactive | Activity (NCI-H460 [25]): Active | Activity (NCI-H460 [26]): 580 mm3 | IC50 (HeLa [5]): 1.6 nM | IC50 (A2780 [11]): 1.4 nM | MST (NCI-H460 [27]): 10.5 days | MST (NCI-H460 [28]): 20 days | MST (NCI-H460 [29]): 16 days | Activity [30]: -4.5% | Activity (NCI-H460 [31]): 947.3 mm3 | Activity (NCI-H460 [32]): 260.4 mm3 | Activity (Tubulin (Bos taurus) [33]): 100% | inhibition (Tubulin (Bos taurus) [34]): Dose-Dependent Effect | Activity (Tubulin (Homo sapiens) [35]): Active | Activity [36]: Non-Toxic | IC50 (HeLa [6]): 1.3 nM | Activity (NCI-H460 [37]): Dose-Dependent Effect | Activity [38]: 11.2% | Activity [39]: -2.9%

CC[C@]1(O)C[C@@H]2CN(CCc3c([nH]c4ccccc34)[C@@](C(=O)OC)(c3cc4c(cc3OC)N(C)[C@H]3[C@@](O)(C(=O)OC)[C@H](OC(C)=O)[C@]5(CC)C=CCN6CC[C@]43[C@@H]65)C2)C1 [VINBLASTINE]
IC50 (A549 [4]): 1.5 nM | IC50 (cells): 70 nM | IC50 (HeLa [5]): 0.54 nM | IC50 (A2780 [11]): 1.5 nM | IC50 (HeLa [6]): 4.4 nM

COc1ccc(-c2ccc(OC)c(=O)cc2)c(OC)c1OC
K (Tubulin (Bos taurus) [40]): 6 s⁻¹
